Laboratory results reported in patent publication US9650428B2, “Methods and compositions for treating cancer” (Roger Williams Hospital, priority 2014, dated 2017).

System: U251MG glioma cells
Test: In vivo efficacy in athymic nude mice with subcutaneous U251MG glioma
Conditions: tumor-bearing mice; TMZ alone orally 64 mg/kg/day for 4 days, no T cells (Group III)
Method: The in vivo efficacy of the IL13E13K.R109K-2A-P140KMGMT construct was tested in mice using the viral particles generated as described in Example 2. Fifty athymic nude mice were injected subcutaneously (left flank) with U251MG glioma cells (40 mice; Groups I-IV) or PBS (10 mice). Four days after glioma implantation, 3 groups of mice (Groups I, II and III, 10 mice/group) were treated orally with TMZ (64 mg/kg/day by oral gavage) for 4 days. On the 5th day after glioma implantation, the 3 groups of mice that had been treated orally with TMZ were treated as follows: Group I: an intra-tumoral injection of the IL13E13K.R109KCAR-2A-P140KMGMT construct (TMZ-resistant); Group II: the IL13 IL13E13K.R109K construct with no MGMT (TMZ sensitive); Group III: treatment with PBS only (no injection of T cells). Group IV received no T cells or TMZ treatment. The mice were monitored for visual tumor growth, behavioral changes, and morbidity until day 90 after injection of the T cells at which time the mice were sacrificed as required by IACUC restrictions.

## Cn1nnc2c(C(N)=O)ncn2c1=O [TMZ, temozolomide]
  median survival time: 36 days
  survival rate: 20%
